Laboratory results as given in patent publication US10683279B2, “Apoptosis signal-regulating kinase 1 inhibitors and methods of use thereof” (Enanta Pharmaceuticals, Inc., priority 2017, dated 2020).

Each compound was assayed against ASK1 (Homo sapiens (Human), UniProt Q99683) (assay: ASK1 kinase inhibition, HTRF KinEASE Assay System (TR-FRET)). Details: 5 nM ASK1 kinase, 1 uM STK3 peptide substrate, 100 uM ATP, 3 hours.
Chain of ASK1 (Q99683 whole entry): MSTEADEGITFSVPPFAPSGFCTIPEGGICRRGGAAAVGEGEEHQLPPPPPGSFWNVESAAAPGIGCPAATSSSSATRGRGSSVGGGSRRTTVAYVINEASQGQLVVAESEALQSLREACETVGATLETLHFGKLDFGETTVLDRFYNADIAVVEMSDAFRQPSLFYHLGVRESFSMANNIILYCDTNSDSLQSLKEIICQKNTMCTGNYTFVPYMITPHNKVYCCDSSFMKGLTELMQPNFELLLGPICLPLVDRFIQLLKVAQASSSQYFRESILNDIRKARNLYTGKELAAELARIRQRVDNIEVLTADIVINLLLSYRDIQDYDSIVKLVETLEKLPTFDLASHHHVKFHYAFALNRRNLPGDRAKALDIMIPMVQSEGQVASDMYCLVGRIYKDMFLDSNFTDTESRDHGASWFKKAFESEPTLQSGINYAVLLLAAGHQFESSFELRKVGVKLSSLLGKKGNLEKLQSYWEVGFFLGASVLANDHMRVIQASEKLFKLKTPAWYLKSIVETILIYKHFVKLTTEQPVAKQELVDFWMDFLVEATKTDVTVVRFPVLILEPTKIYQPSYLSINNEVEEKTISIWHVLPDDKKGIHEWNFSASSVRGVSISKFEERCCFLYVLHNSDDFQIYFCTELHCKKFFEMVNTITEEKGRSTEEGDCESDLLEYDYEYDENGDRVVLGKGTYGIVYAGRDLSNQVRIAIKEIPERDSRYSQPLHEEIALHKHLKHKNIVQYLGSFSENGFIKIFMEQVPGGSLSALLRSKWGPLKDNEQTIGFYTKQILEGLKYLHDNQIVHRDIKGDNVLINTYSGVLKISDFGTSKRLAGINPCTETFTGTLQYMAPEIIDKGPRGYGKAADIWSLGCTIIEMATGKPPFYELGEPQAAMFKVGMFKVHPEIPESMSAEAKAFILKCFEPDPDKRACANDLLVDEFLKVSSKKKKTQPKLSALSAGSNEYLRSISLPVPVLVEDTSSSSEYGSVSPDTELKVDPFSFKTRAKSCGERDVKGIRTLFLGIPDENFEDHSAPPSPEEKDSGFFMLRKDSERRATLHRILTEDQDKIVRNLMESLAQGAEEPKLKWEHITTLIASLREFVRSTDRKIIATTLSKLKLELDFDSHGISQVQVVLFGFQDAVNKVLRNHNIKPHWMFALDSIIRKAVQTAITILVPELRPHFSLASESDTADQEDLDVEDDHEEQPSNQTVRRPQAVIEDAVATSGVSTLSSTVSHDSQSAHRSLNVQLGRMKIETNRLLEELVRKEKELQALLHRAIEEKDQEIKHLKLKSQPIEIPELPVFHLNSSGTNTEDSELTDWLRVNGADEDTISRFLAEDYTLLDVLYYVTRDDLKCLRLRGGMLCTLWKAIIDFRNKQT
Type: biochemical
Protocol: The ability (IC50) of compounds to inhibit ASK1 kinase activity was determined by HTRF® KinEASE™ Assay System.
ASK1 was purchased from Thermofisher (Catalogue # PV401.1), ATP was purchased from Sigma (Catalogue # A7699), HTRF® KinEASE™ Assay System was obtained from Cisbio (Bedford, Mass). ½ Area plate was purchased from Perkin Elmer (Catalogue # #6005560). HTRF® KinEASE™-STK is a generic method for measuring serine/threonine kinase activities using a time-resolved fluorescence resonance energy transfer (TR-FRET) immunoassay. The IC50 value for each compound was determined in the presence of compound (various concentration from 0 to 10 μM) and a fixed amount of ATP and peptide substrates. The test compound, luM STK3 peptide substrate, and 5 nM of ASK1 kinase are incubated with kinase reaction buffer containing 50 mM HEPES pH 7.5, 0.01% BRIJ-35, 10 mM MgCl2, and 1 mM EGTA for 30 minutes. 100 uM ATP is added to start kinase reaction and incubated for 3 hours. The STK3-antibody labeled with Eu^3+-Cryptate and 125 nM streptavidin-XL665 are mixed in a single addition with stop reagents provided by the Cisbio kit used to stop the kinase reaction. Fluorescence is detected using an Envision Multilabeled 2014 reader from PerkinElmer. The Fluorescence is measured at 615 nm (Cryptate) and 665 nm (XL665) and a ratio of 665 nm/615 nm is calculated for each well. The resulting TR-FRET is proportional to the phosphorylation level. Staurosporine was used as the positive control. IC50 was determined by XLfit 5.3.
By using above method, the inhibition of ASK1 was tested for the compound of formula (I). IC50 ranges are as follows: A<1 nM; 1 nM<B<10 nM; 10 nM<C<100 nM; 100 nM<D
With `Cc1cc(F)c(C(=O)Nc2cccc(-c3nnnn3C(CO)CO)n2)cc1-n1cnc(C2CC2)c1` [Example 26a] the IC50 was < 1 nM.
For `Cc1cc(F)c(C(=O)Nc2cccc(-c3nnnn3C(C)C)n2)cc1-n1cnc(C(C)(C)C)c1` [Example 29a], the IC50 was 1 to 10 nM.
Compound `CC(C)n1nnnc1-c1cccc(NC(=O)c2cc(-n3cnc(C4CC4)c3)c(C(F)(F)F)cn2)n1` [Example 57a] has an IC50 of 1 to 10 nM.
`CC(C)n1nnnc1-c1nc(NC(=O)c2cc(-n3cnc(C4CC4)c3)c(C(F)(F)F)cn2)cs1` [Example 59a] showed an IC50 of 1 to 10 nM.
`CC(C)n1nnnc1-c1cccc(NC(=O)c2cc(-n3cnc(C4CC4)c3)c(N3CCCC3)cn2)n1` [Example 43a] showed an IC50 of 1 to 10 nM.
Work on `Cc1cc(F)c(C(=O)Nc2ccnc(-c3nnnn3C(C)C)n2)cc1-n1cnc(C2CC2)c1` [Example 34a] yielded an IC50 of 10 to 100 nM.
Work on `Cc1cc(F)c(C(=O)Nc2cccc(-c3nnnn3C3(C)CC3)n2)cc1-n1cnc(C2CC2)c1` [Example 3a, 5-(4-cyclopropyl-1H-imidazol-1-yl)-2-fluoro-N-(6-(1-(1-methylcyclo-propyl)-1H-tetrazol-5-yl)pyridin-2-yl)-4-methylbenzamide] yielded an IC50 of 1 to 10 nM.
Work on `CC(=O)OC[C@H](C)n1nnnc1-c1cccc(NC(=O)c2cc(-n3cnc(C4CC4)c3)c(C)cc2F)n1` [Example 4a, (S)-2-(5-(6-(5-(4-cyclopropyl-1H-imidazol-1-yl)-2-fluoro-4-methyl-benzamido)pyridin-2-yl)-1H-tetrazol-1-yl)propyl acetate] yielded an IC50 of 1 to 10 nM.
For `Cc1cnc(C(=O)Nc2cccc(-c3nnnn3[C@H](C)CO)n2)cc1-n1cnc(C(F)(F)F)c1` [Example 51a], the IC50 was 1 to 10 nM.
With `CC(C)n1nnnc1-c1nc(NC(=O)c2cc(-n3cnc(C4CC4)c3)c(N3CCN(C)CC3)cn2)cs1` [Example 44a] the IC50 was 1 to 10 nM.
`Cc1cnc(C(=O)Nc2cccc(-n3nnnc3C(C)C)n2)cc1-n1cnc(C(C)(C)C)c1` [Example 5b] showed an IC50 of 1 to 10 nM.
Work on `C[C@H](CO)n1nnnc1-c1cccc(NC(=O)c2cc(-n3cnc(C4CC4)c3)c(CO)cc2F)n1` [Example 33a, (R)-5-(4-cyclopropyl-1H-imidazol-1-yl)-2-fluoro-4-(hydroxymethyl)-N-(6-(1-(1-hydroxypropan-2-yl)-1H-tetrazol-5-yl)pyridin-2-yl)benzamide] yielded an IC50 of 1 to 10 nM.
Work on `CC(C)n1nnnc1-c1nc(NC(=O)c2cc(-n3cnc(C4CC4)c3)c(F)cn2)cs1` [Example 38a] yielded an IC50 of 1 to 10 nM.
`Cc1cc(F)c(C(=O)Nc2cccc(-c3nnnn3C(C)C)n2)cc1-n1cnc(C(F)(F)F)c1` [Example 27a] gave an IC50 of 10 to 100 nM.
With `Cc1cnc(C(=O)Nc2cccc(-n3nnnc3C(C)C)n2)cc1-n1cnc(C(F)(F)F)c1` [Example 4b] the IC50 was 10 to 100 nM.
`Cc1cnc(C(=O)Nc2cccc(-n3nnnc3C(C)C)n2)cc1-n1cnc(C2CC2)c1` [Example 3b] showed an IC50 of 1 to 10 nM.
Work on `CC(=O)OCC[C@@H](C)n1nnnc1-c1cccc(NC(=O)c2cc(-n3cnc(C4CC4)c3)c(C)cc2F)n1` [Example 23a] yielded an IC50 of 1 to 10 nM.
`CC(C)n1nnnc1-c1nc(NC(=O)c2cc(-n3cnc(C4CC4)c3)c(N3CCCCC3)cn2)cs1` [Example 41a] gave an IC50 of 10 to 100 nM.
Compound `CC(C)n1nnnc1-c1cccc(NC(=O)c2cc(-n3cnc(C4CC4)c3)c(N3CCOCC3)cn2)n1` [Example 46a] has an IC50 of 1 to 10 nM.
Compound `COc1cc(C)c(-n2cnc(C3CC3)c2)cc1C(=O)Nc1cccc(-c2nnnn2[C@H](C)CO)n1` [Example 61a] has an IC50 of 1 to 10 nM.
Work on `Cc1cc(F)c(C(=O)Nc2cccc(-c3nnnn3C(C)C)n2)cc1-n1cnc(C2CC2)c1` [Example 1a, 5-(4-cyclopropyl-1H-imidazol-1-yl)-2-fluoro-N-(6-(1-isopropyl-1H-tetrazol-5-yl)pyridin-2-yl)-4-methylbenzamide] yielded an IC50 of 1 to 10 nM.
With `Cc1cc(F)c(C(=O)Nc2cccc(-c3nnnn3[C@@H]3CCOC3)n2)cc1-n1cnc(C2CC2)c1` [Example 17a] the IC50 was 1 to 10 nM.
`C[C@H](CO)n1nnnc1-c1cccc(NC(=O)c2cc(-n3cnc(C4CC4)c3)c(C(F)F)cc2F)n1` [Example 32a] was tested, and the IC50 was 1 to 10 nM.
With `Cc1cc(F)c(C(=O)Nc2cccc(-n3nnnc3C(C)C)n2)cc1-n1cnc(C2CC2)c1` [Example 1b, 5-(4-cyclopropyl-1H-imidazol-1-yl)-2-fluoro-N-(6-(5-isopropyl-1H-tetrazol-1-yl)pyridin-2-yl)-4-methylbenzamide] the IC50 was 1 to 10 nM.
`CC(C)n1nnnc1-c1cccc(NC(=O)c2cc(-n3cnc(C4CC4)c3)c(C(F)F)cc2F)n1` [Example 31a, 5-(4-cyclopropyl-1H-imidazol-1-yl)-4-(difluoromethyl)-2-fluoro-N-(6-(1-isopropyl-1H-tetrazol-5-yl)pyridin-2-yl)benzamide] gave an IC50 of 1 to 10 nM.
For `Cc1cc(F)c(C(=O)Nc2cccc(-c3nnnn3CC(F)F)n2)cc1-n1cnc(C2CC2)c1` [Example 12a], the IC50 was 1 to 10 nM.
`Cc1cc(F)c(C(=O)Nc2cccc(-c3nnnn3[C@H]3CCOC3)n2)cc1-n1cnc(C2CC2)c1` [Example 18a] showed an IC50 of 1 to 10 nM.
`Cc1cnc(C(=O)Nc2cccc(-c3nnnn3C(C)C)n2)cc1-n1cnc(C2CC2)c1` [Example 48a] was tested, and the IC50 was 10 to 100 nM.
For `Cc1cc(F)c(C(=O)Nc2cccc(-c3nnnn3C3CCC3)n2)cc1-n1cnc(C2CC2)c1` [Example 10a], the IC50 was 1 to 10 nM.
In the case of `Cc1cnc(C(=O)Nc2cccc(-c3nnnn3[C@H](C)CO)n2)cc1-n1cnc(C(C)(C)C)c1` [Example 53a], the IC50 is reported as 1 to 10 nM.
For `CCCC(=O)OC[C@@H](C)n1nnnc1-c1cccc(NC(=O)c2cc(-n3cnc(C4CC4)c3)c(C)cc2F)n1` [Example 24a], the IC50 was 10 to 100 nM.
`Cc1cc(F)c(C(=O)Nc2cccc(-c3nnnn3[C@H](C)CO)n2)cc1-n1cnc(C(C)(C)C)c1` [Example 30a] gave an IC50 of 1 to 10 nM.
With `Cc1cc(F)c(C(=O)Nc2cccc(-c3nnnn3[C@@H](C)CO)n2)cc1-n1cnc(C2CC2)c1` [Example 5a, (S)-5-(4-cyclopropyl-1H-imidazol-1-yl)-2-fluoro-N-(6-(1-(1-hydroxypropan-2-yl)-1H-tetrazol-5-yl)pyridin-2-yl)-4-methylbenzamide] the IC50 was 1 to 10 nM.
`Cc1cc(F)c(C(=O)Nc2cccc(-c3nnnn3C(C)C(F)(F)F)n2)cc1-n1cnc(C2CC2)c1` (centres unmarked) [Example 16a] gave an IC50 of 10 to 100 nM.
`CC(C)n1nnnc1-c1nc(NC(=O)c2cc(-n3cnc(C4CC4)c3)c(N3CCCC3)cn2)cs1` [Example 42a] showed an IC50 of 1 to 10 nM.
`Cc1cc(F)c(C(=O)Nc2cccc(-c3nnnn3CC(C)C)n2)cc1-n1cnc(C2CC2)c1` [Example 9a] gave an IC50 of 10 to 100 nM.
In the case of `Cc1cc(F)c(C(=O)Nc2cccc(-c3nnnn3[C@H](C)COC(=O)c3ccccc3)n2)cc1-n1cnc(C2CC2)c1` [Example 25a], the IC50 is reported as > 1000 nM.
With `Cc1cc(F)c(C(=O)Nc2cccc(-n3nnnc3C(C)C)n2)cc1-n1cnc(C(C)(C)C)c1` [Example 6b] the IC50 was 1 to 10 nM.
For `Cc1cc(F)c(C(=O)Nc2cccc(-c3nnnn3C(C)C)c2)cc1-n1cnc(C2CC2)c1` [Example 35a], the IC50 was 10 to 100 nM.
In the case of `Cc1cc(F)c(C(=O)Nc2cccc(-c3nnnn3[C@H](C)CF)n2)cc1-n1cnc(C2CC2)c1` [Example 14a], the IC50 is reported as 1 to 10 nM.
`Cc1cc(F)c(C(=O)Nc2cccc(-c3nnnn3[C@H](C)CO)n2)cc1-n1cnc(C(F)(F)F)c1` [Example 28a] gave an IC50 of 1 to 10 nM.
For `Cc1cc(F)c(C(=O)Nc2cccc(-c3nnnn3CC(C)(C)C)n2)cc1-n1cnc(C2CC2)c1` [Example 13a], the IC50 was 1 to 10 nM.
With `CC(=O)OC[C@@H](C)n1nnnc1-c1cccc(NC(=O)c2cc(-n3cnc(C4CC4)c3)c(C)cc2F)n1` [Example 6a, (R)-2-(5-(6-(5-(4-cyclopropyl-1H-imidazol-1-yl)-2-fluoro-4-methyl-benzamido)pyridin-2-yl)-1H-tetrazol-1-yl)propyl acetate] the IC50 was > 100 nM.
In the case of `CC(C)n1nnnc1-c1cccc(NC(=O)c2cc(-n3cnc(C4CC4)c3)c(N3CCN(C)CC3)cn2)n1` [Example 47a], the IC50 is reported as 1 to 10 nM.
`CC(=O)NC[C@@H](C)n1nnnc1-c1cccc(NC(=O)c2cc(-n3cnc(C4CC4)c3)c(C)cc2F)n1` [Example 20a] gave an IC50 of 10 to 100 nM.
For `Cc1cc(F)c(C(=O)Nc2cccc(-c3nnnn3[C@H](C)CCO)n2)cc1-n1cnc(C2CC2)c1` [Example 22a], the IC50 was 1 to 10 nM.
Compound `COc1cc(C)c(-n2cnc(C3CC3)c2)cc1C(=O)Nc1cccc(-c2nnnn2C(C)C)n1` [Example 60a] has an IC50 of 1 to 10 nM.
`C[C@H](CO)n1nnnc1-c1cccc(NC(=O)c2cc(-n3cnc(C4CC4)c3)c(C(F)F)cn2)n1` [Example 55a] gave an IC50 of 1 to 10 nM.
`CC(C)n1nnnc1-c1cccc(NC(=O)c2cc(-n3cnc(C4CC4)c3)c(C(F)F)cn2)n1` [Example 54a] gave an IC50 of 1 to 10 nM.
Compound `CC(C)n1nnnc1-c1nc(NC(=O)c2cc(-n3cnc(C4CC4)c3)c(N3CCOCC3)cn2)cs1` [Example 45a] has an IC50 of 1 to 10 nM.
For `Cc1cc(F)c(C(=O)Nc2cccc(-n3nnnc3C(C)C)n2)cc1-n1cnc(C(F)(F)F)c1` [Example 2b], the IC50 was > 100 nM.
`Cc1cnc(C(=O)Nc2cccc(-c3nnnn3[C@H](C)CO)n2)cc1-n1cnc(C2CC2)c1` [Example 49a] gave an IC50 of 1 to 10 nM.
For `CC(C)n1nnnc1-c1nc(NC(=O)c2cc(-n3cnc(C4CC4)c3)c(C(F)F)cn2)cs1` [Example 56a], the IC50 was 1 to 10 nM.
